The results in this text go back to patent publication US20120202794A1 (priority 2011, published 2012).

The nature of data set [1]: Cell cytotoxicity assay (MTS), CC90 as reported in Table 1, cell line not stated. The following applies: human, cell line not given. The class given is cell-based. In outline: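 MTS read-out (490 nm, 2 h dye step) after 8-day exposure at 37° C. Huh7, HepG2, BxPC3 were seeded at 2×10^3 and CEM at 5×10^3 cells/well, with compound serially diluted from 100 μM. CC90 comes from comparison with untreated control wells.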

Data set [2] has as its system HCV Replicon 1b. As to the kind of experiment: HCV inhibition assay, HCV replicon 1b (Clone A or ET-lunet cells; RT-PCR or luciferase reporter). The format is cell-based. The settings on record: Hepatitis C virus, 96 h, HCV replicon 1b; 4 days incubation; read-out: Replicon 1b potency EC90. In a few lines: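 Inhibition read either as luciferase signal (ET replicon) or as HCV 5′-NTR RNA by RT-PCR relative to rRNA, % = (1−2^−ΔΔCt)×100, against DMSO controls, giving EC50 and EC90. Cells: Clone A or ET-lunet, seeded 1500 or 3000/well, exposed 4 days at 37 °C, 5% CO2, 0.5% DMSO.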
In general terms: A replicon is a self-replicating genome or part of one, used to study replication in cells.

Turning to `CC(C)C[C@H]1CN(C(=O)c2cc(-c3ccc(C(C)(C)C)cc3)on2)[C@@H](CC(C)C)C(=O)N1` [Compound 132], in data set [1], the CC90 at 8 days is more than 10 µM. Further, the EC90 in data set [2] was 4.33 µM.

As for `CC(C)C[C@H]1C(=O)N[C@@H](C2CCCCC2)CN1C(=O)c1cc(-c2ccc(Cl)c(F)c2)on1` [Compound 159], the CC90 at 8 days in data set [1] was more than 10 µM. Further, in data set [2], the concentration for an effect of 90% (EC90) stood at 0.71 µM.

`CC(C)C[C@H]1C(=O)N[C@@H](C(C)C)CN1C(=O)c1cc(-c2cccs2)on1` [Compound 111] gave a CC90 at 8 days in data set [1] of more than 10 µM. The concentration for an effect of 90% (EC90) in data set [2] amounted to 0.8 µM.

As to `CC(C)C[C@H]1C(=O)N[C@@H](C(=O)N(C)C)CN1C(=O)c1cc(-c2ccc(F)cc2)on1` [Compound 507, (2R,5S)-4-(5-(4-fluorophenyl)isoxazole-3-carbonyl)-5-isobutyl-N,N-dimethyl-6-oxopiperazine-2-carboxamide], in data set [1] (MTS assay, 8 days incubation), the CC90 at 8 days was more than 10 µM. Moreover, the 90% effect concentration (EC90) in data set [2] was 0.84 µM.

`Cc1cccc(C)c1NC(=O)CN1C[C@H](CC(C)C)NC(=O)[C@@H]1CC(C)C` [Compound 88] displayed a CC90 at 8 days in data set [1] of more than 10 µM. In addition, in data set [2], the EC90 is more than 10 µM.

As for `CC(C)C[C@H]1C(=O)N[C@H](c2ccc[nH]2)CN1C(=O)c1cc(-c2ccc(F)cc2)on1` [Compound 524, (3S,6S)-4-(5-(4-fluorophenyl)isoxazole-3-carbonyl)-3-isobutyl-6-(1H-pyrrol-2-yl)piperazin-2-one], the CC90 at 8 days in data set [1] (MTS assay, 8 days incubation) was more than 10 µM. Also, the EC90 in data set [2] is more than 10 µM.

In the case of `CCc1ccc(-c2cc(C(=O)N3C[C@H](CC(C)C)NC(=O)[C@@H]3CC(C)C)no2)cc1` [Compound 283, (3S,6S)-4-(5-(4-ethylphenyl)isoxazole-3-carbonyl)-3,6-diisobutylpiperazin-2-one], the CC90 at 8 days in data set [1] (MTS assay, 8 days incubation) was more than 10 µM. For the same compound, in data set [2], the EC90 amounted to 8.75 µM.

`CCC[C@H]1CN(C(=O)c2cc(-c3ccc(Cl)cc3)on2)[C@@H](CC(C)C)C(=O)N1` [Compound 170] gave a CC90 at 8 days in data set [1] of more than 10 µM. In addition, the 90% effect concentration (EC90) in data set [2] came to 0.05 µM.

On to `CC(C)C[C@H]1CN(C(=O)c2cc(-c3ccc(N(C)C)cc3)on2)[C@@H](CC(C)C)C(=O)N1` [Compound 140], for which, in data set [1], the CC90 at 8 days is more than 10 µM. Besides, the concentration for an effect of 90% (EC90) in data set [2] was more than 10 µM.

The compound `CC(C)C[C@H]1C(=O)N[C@@H](C2CCCC2)CN1C(=O)c1cc(-c2ccc(Cl)c(F)c2)on1` [Compound 160] gave a CC90 at 8 days in data set [1] of more than 10 µM. Moreover, in data set [2], the EC90 was 0.41 µM.

On to `CC(C)C[C@H]1CN(C(=O)/C=C/c2ccc(C(F)(F)F)cc2)[C@@H](CC(C)C)C(=O)N1` [Compound 73], for which the CC90 at 8 days in data set [1] is more than 10 µM. Besides, the concentration for an effect of 90% (EC90) in data set [2] amounted to 3.34 µM.

Take `CC(C)C[C@H]1CN(C(=O)C#Cc2ccc(F)cc2)[C@@H](CC(C)C)C(=O)N1` [Compound 113]: the CC90 at 8 days in data set [1] is more than 10 µM. The EC90 in data set [2] stood at 3.4 µM.

Turning to `CC(C)C[C@H]1CN(C(=O)c2cc(-c3ccc(F)cc3F)on2)[C@@H](CC(C)C)C(=O)N1` [Compound 133], the CC90 at 8 days in data set [1] was more than 10 µM. The EC90 in data set [2] was found to be 0.6 µM.

Turning to `CC(C)C[C@H]1C(=O)N[C@@H](C2CCCC2)CN1C(=O)c1nc(-c2ccc(F)cc2)no1` [Compound 152], the CC90 at 8 days in data set [1] was more than 10 µM. For the same compound, the EC90 in data set [2] is 0.11 µM.

As to `CC(C)C[C@H]1C(=O)N[C@@H](C2CCCC2)CN1C(=O)c1noc(-c2ccc(F)cc2F)c1F` [Compound 388, (3S,6S)-6-cyclopentyl-4-(5-(2,4-difluorophenyl)-4-fluoroisoxazole-3-carbonyl)-3-isobutylpiperazin-2-ono], the CC90 at 8 days in data set [1] (MTS assay, 8 days incubation) is more than 10 µM. Besides, the concentration for an effect of 90% (EC90) in data set [2] is 0.67 µM.

As to `CCC[C@H]1CN(C(=O)[C@@H]2C[C@H]2c2ccccc2)[C@@H](CC(C)C)C(=O)N1` [Compound 230, (3S,6S)-3-isobutyl-4-((1R,2R)-2-phenylcyclopropanecarbonyl)-6-propylpiperazin-2-one], in data set [1], the CC90 at 8 days was more than 10 µM. Further, the EC90 in data set [2] stood at 0.57 µM.

Regarding `CCC[C@H]1CN(C(=O)c2cc(-c3ccc(F)cc3)no2)[C@@H](CC(C)C)C(=O)N1` [Compound 189], the CC90 at 8 days in data set [1] was more than 10 µM. Also, in data set [2], the concentration for an effect of 90% (EC90) worked out at 0.11 µM.

What is called EC90 is the concentration at which the effect reaches the 90% level.
